Tested on: 616215-338-R-J1-PDC complex spheroid viability
Assay: Anticancer human tumor 616215-338-R-J1-PDC patient-derived colon adenocarcinoma cell line growth inhibition [POLQ]
Conditions: for IC50: curve of first compound; for viability, T/C: stronger effect = lower value
Description: Multicellular complex tumor spheroid response to Polymerase (POL) inhibitors (novobiocin, ART-558, RP6685) in combination with a variety of drugs and investigational agents in selected tumor cell lines
The POL inhibitors (novobiocin, ART-558, and RP6685) were evaluated both individually and in combination with standard of care and investigational anticancer small molecules within a complex spheroid model of solid tumors. . Complex spheroids include a stromal component modeled by human endothelial cells (HUVEC) and fibroblasts modeled by human mesenchymal stem cells (MSCs). The concentration ranges selected for each drug and investigational agent were based upon clinically achievable concentrations if the clinical Cmax of the agent was known.
Compounds. The drugs and investigational agents: novobiocin (NSC847541), ART-558 (NSC835418), RP-6685 (NSC848927), peposertib (NSC802822), ceralasertib (NSC780249), elimusertib (NSC800525), camonsertib (NSC841442), AZD-1390 (NSC803789), olaparib (NSC753686), talazoparib (NSC767125), rucaparib (NSC756644), sotorasib (NSC818433), MRTX-1133 (NSC836407), SN-38 (NSC673596), topotecan (NSC609699), epotoside (NSC141540), doxorubicin (NSC123127), gemcitabine (NSC613327), 5-fluorouracil (NSC19893), paclitaxel (NSC125973), vemurafenib (NSC761431), MSA-2 (NSC828583), SN-011 (NSC837082), adavosertib (NSC754352), prexasertib (NSC758257), carboplatin (NSC241240) and oxaliplatin (NSC266046), were obtained from the National Cancer Institute (NCI) Developmental Therapeutics Program Chemical Repository (21). The FDA-approved anticancer drug set is available from the Developmental Therapeutics Program at https://dtp.cancer.gov/organization/dscb/obtaining/. […] The stock solutions were prepared in dimethyl sulfoxide (DMSO, Sigma-Aldrich, St. Louis, MO, cat. D2650), except for the platinum compounds which were prepared in saline (Quality Biological, Gaithersburg, MD, cat. 114-055-101), at 800-fold the tested concentration and stored at -70 degrees C prior to their use. All drugs and investigational agents were tested over a range starting from a high concentration at or near the clinical Cmax and decreasing in half-log increments. If the clinical Cmax for an agent had not been determined, the highest concentration tested was 10 microM, except for SN-38, which was tested at a high concentration of 1 microM.
Cell Culture. All cells were maintained in an incubator at 37 degrees C and 5% CO2 with 95% humidity. The PDC lines were cultured according to standard operating procedures established by the NCI PDMR (https://pdmr.cancer.gov). Table 3 of the manuscript, lists the cell lines along with the number of the three cell types plated to form the mct-spheroids and media for tumor cell growth. After thawing, all PDC lines, except 997537-175-T-J1-PDC and 415267-285-R-J2-PDC, were cultured in Matrigel-coated flasks prepared with a working solution of 1X Ham's F-12 nutrient mix, without supplementation (Thermo Fisher Scientific, cat. 11765054), 100 U/mL penicillin-streptomycin (Thermo Fisher Scientific, cat. 15140122), and 2.5% Matrigel (Corning Inc., Corning, NY, cat. 354248) for the first three passages. The two PDC lines 997537-175-T-J1-PDC and 415267-285-R-J2-PDC were cultured on uncoated flasks. The 857933-349-R-J2-PDC line was cultured in 6C/Colon 1B media containing advanced DMEM/F-12 (Thermo Fisher Scientific, cat. 12634028), 10 mM HEPES (Thermo Fisher Scientific, cat. 15630080), 1X GlutaMAX supplement (Thermo Fisher Scientific, cat. 35050061), 0.1 mg/mL primocin (InvivoGen, San Diego, CA, cat. ant-pm-2), 10% defined fetal bovine serum, heat inactivated (HyClone Laboratories Inc., Logan, UT, cat. SH30070.03HI), 50% L-WRN conditioned media (ATCC, cat. CRL-3276), 1.25 mM N-Acetyl-L-cysteine (Sigma-Aldrich, cat. A9165), 10 mM nicotinamide (Sigma-Aldrich, cat. N0636), 1X B-27 supplement (Thermo Fisher Scientific, cat. 17504044), 1X N-2 supplement (Thermo Fisher Scientific, cat. […]

[1] = second compound 0.0316 µM, first compound 0.0316 µM
[2] = second compound 0.0316 µM, first compound 0.1 µM
[3] = second compound 0.0316 µM, first compound 0.316 µM
[4] = second compound 0.0316 µM, first compound 1 µM
[5] = second compound 0.0316 µM, first compound 3.16 µM
[6] = second compound 0.0316 µM, first compound 10 µM
[7] = second compound 0.1 µM, first compound 0.0316 µM
[8] = second compound 0.1 µM, first compound 0.1 µM
[9] = second compound 0.1 µM, first compound 0.316 µM
[10] = second compound 0.1 µM, first compound 1 µM
[11] = second compound 0.1 µM, first compound 3.16 µM
[12] = second compound 0.1 µM, first compound 10 µM
[13] = second compound 0.316 µM, first compound 0.0316 µM
[14] = second compound 0.316 µM, first compound 0.1 µM
[15] = second compound 0.316 µM, first compound 0.316 µM
[16] = second compound 0.316 µM, first compound 1 µM
[17] = second compound 0.316 µM, first compound 3.16 µM
[18] = second compound 0.316 µM, first compound 10 µM
[19] = second compound 1 µM, first compound 0.0316 µM
[20] = second compound 1 µM, first compound 0.1 µM
[21] = second compound 1 µM, first compound 0.316 µM
[22] = second compound 1 µM, first compound 1 µM
[23] = second compound 1 µM, first compound 3.16 µM
[24] = second compound 1 µM, first compound 10 µM
[25] = second compound 3.16 µM, first compound 0.0316 µM
[26] = second compound 3.16 µM, first compound 0.1 µM
[27] = second compound 3.16 µM, first compound 0.316 µM
[28] = second compound 3.16 µM, first compound 1 µM
[29] = second compound 3.16 µM, first compound 3.16 µM
[30] = second compound 3.16 µM, first compound 10 µM
[31] = second compound 10 µM, first compound 0.0316 µM
[32] = second compound 10 µM, first compound 0.1 µM
[33] = second compound 10 µM, first compound 0.316 µM
[34] = second compound 10 µM, first compound 1 µM
[35] = second compound 10 µM, first compound 3.16 µM
[36] = second compound 10 µM, first compound 10 µM
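Further: spheroids exposed to compounds for one week before readout.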
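Wherever viability, T/C is given: percent viability relative to DMSO vehicle wells taken as 100%.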

Structure (SMILES): O=c1[nH]cc(F)c(=O)[nH]1 + COC1C(OC(N)=O)C(O)C(Oc2ccc3c(O)c(NC(=O)c4ccc(O)c(CC=C(C)C)c4)c(=O)oc3c2C)OC1(C)C
- IC50 (second compound 0.0316 µM): > 10 µM
- IC50 (second compound 0.1 µM): > 10 µM
- IC50 (second compound 0.316 µM): > 10 µM
- IC50 (second compound 1 µM): > 10 µM
- IC50 (second compound 3.16 µM): > 10 µM
- IC50 (second compound 10 µM): > 10 µM
- viability, T/C [1]: 101%
- viability, T/C [2]: 94.6%
- viability, T/C [3]: 73.4%
- viability, T/C [4]: 61.1%
- viability, T/C [5]: 60.7%
- viability, T/C [6]: 68.7%
- viability, T/C [7]: 99.4%
- viability, T/C [8]: 96.3%
- viability, T/C [9]: 75.3%
- viability, T/C [10]: 64.2%
- viability, T/C [11]: 61%
- viability, T/C [12]: 61.9%
- viability, T/C [13]: 100%
- viability, T/C [14]: 97.2%
- viability, T/C [15]: 67.3%
- viability, T/C [16]: 59.3%
- viability, T/C [17]: 60%
- viability, T/C [18]: 63%
- viability, T/C [19]: 95.8%
- viability, T/C [20]: 94.1%
- viability, T/C [21]: 75.2%
- viability, T/C [22]: 58.1%
- viability, T/C [23]: 52.1%
- viability, T/C [24]: 59%
- viability, T/C [25]: 99.2%
- viability, T/C [26]: 107%
- viability, T/C [27]: 75.7%
- viability, T/C [28]: 69.8%
- viability, T/C [29]: 65.4%
- viability, T/C [30]: 65.8%
- viability, T/C [31]: 111%
- viability, T/C [32]: 99.2%
- viability, T/C [33]: 68.5%
- viability, T/C [34]: 57.9%
- viability, T/C [35]: 54.2%
- viability, T/C [36]: 61.2%

Structure (SMILES): C#Cc1c(F)ccc2cc(O)cc(-c3ncc4c(N5CC6CCC(C5)N6)nc(OCC56CCCN5CC(F)C6)nc4c3F)c12 (centres undefined) + COC1C(OC(N)=O)C(O)C(Oc2ccc3c(O)c(NC(=O)c4ccc(O)c(CC=C(C)C)c4)c(=O)oc3c2C)OC1(C)C
- IC50 (second compound 0.0316 µM): > 10 µM
- IC50 (second compound 0.1 µM): > 10 µM
- IC50 (second compound 0.316 µM): > 10 µM
- IC50 (second compound 1 µM): > 10 µM
- IC50 (second compound 3.16 µM): > 10 µM
- IC50 (second compound 10 µM): > 10 µM
- viability, T/C [1]: 108%
- viability, T/C [2]: 109%
- viability, T/C [3]: 101%
- viability, T/C [4]: 112%
- viability, T/C [5]: 113%
- viability, T/C [6]: 79.2%
- viability, T/C [7]: 103%
- viability, T/C [8]: 105%
- viability, T/C [9]: 98.2%
- viability, T/C [10]: 108%
- viability, T/C [11]: 95.8%
- viability, T/C [12]: 64.1%
- viability, T/C [13]: 110%
- viability, T/C [14]: 102%
- viability, T/C [15]: 110%
- viability, T/C [16]: 105%
- viability, T/C [17]: 103%
- viability, T/C [18]: 58.1%
- viability, T/C [19]: 105%
- viability, T/C [20]: 108%
- viability, T/C [21]: 109%
- viability, T/C [22]: 94.7%
- viability, T/C [23]: 103%
- viability, T/C [24]: 71.3%
- viability, T/C [25]: 105%
- viability, T/C [26]: 109%
- viability, T/C [27]: 103%
- viability, T/C [28]: 110%
- viability, T/C [29]: 104%
- viability, T/C [30]: 64%
- viability, T/C [31]: 94.5%
- viability, T/C [32]: 103%
- viability, T/C [33]: 109%
- viability, T/C [34]: 106%
- viability, T/C [35]: 100%
- viability, T/C [36]: 82.6%

Source: PubChem BioAssay AID1963843 (Molecular Pharmacology Branch, DTP, NCI, 2024)
